Assay results from patent US11065274B2, “Prevention and treatment for microbial infections” (University of Rochester, priority 2015, dated 2021).

Legend:
[1] = test system: Staphylococcus aureus UAMS-1
[2] = test system: Acinetobacter baumannii 983709
[3] = test system: Escherichia coli 8307
[4] = test system: Enterococcus faecalis V583
[5] = test system: Pseudomonas aeruginosa PA01
[6] = test system: S. aureus; details: 2% agent (combination 1% silver sulfadiazine and 1% zinc pyrithione), 3 day
Protocol: (§1) Treatments were twice a day for a total of three days, at which point the wound bacterial burden was measured.

[7] = test system: P. aeruginosa; details: P. aeruginosa wound; 2% agent in PEG (combination 1%+1%), twice a day for three days
Protocol: as §1

[8] = test system: S. aureus
Description: (§2) Dose response measures of the antimicrobial activity of various concentrations (0 to 8% active agent) were used to define the optimal concentration of each agent alone and in combination.

[9] = test system: A. baumannii
Description: as §2

[10] = test system: Klebsiella pneumoniae CKP4
[11] = test system: Enterobacter cloacae Clinical Isolate
[12] = test system: P. aeruginosa
Description: as §2

[13] = test system: 24 hour established A. baumannii biofilms
[14] = test system: Enterococcus faecium 824-05
[15] = test system: 48 hour established Pseudomonas aeruginosa biofilms
[16] = 0 to 8% active agent (ZnPt ˜0.015 to 0.25%; combination 0.015% to 4%)

## zinc pyrithione [ZnPt]
[1]; Staphylococcus aureus
  minimum inhibitory concentration: 2 µg/mL
[1]; Staphylococcus aureus UAMS-1
  MIC: 2 µg/mL
[2]; Acinetobacter baumannii
  minimum inhibitory concentration: 2 µg/mL
[2]; Acinetobacter baumannii 983709
  MIC: 2 µg/mL
[3]; Escherichia coli
  minimum inhibitory concentration: 1 µg/mL
[3]; Escherichia coli 8307
  MIC: 1 µg/mL
[4]
  MIC: 2 µg/mL
[5]; Pseudomonas aeruginosa PA01
  MIC: 16 µg/mL
[5]; planktonic P. aeruginosa
  minimum inhibitory concentration: 16 µg/mL
[6]
  animals completed cleared of S. aureus: 6 of 10
[7]
  decrease in bacterial burden: 1.2 log
[8]
  antimicrobial activity in PEG-formulation: exhibited antimicrobial activity
[8]; [16]
  dose response of antimicrobial activity in PEG ointment: dose-dependent increase in antimicrobial activity
[9]; [16]
  dose response of antimicrobial activity in PEG ointment: dose-dependent increase in antimicrobial activity
[9]; 1% agent or 1% combination (0.5% each)
  antimicrobial activity in PEG-formulation: exhibited antimicrobial activity
[10]; Klebsiella pneumoniae
  minimum inhibitory concentration: 2 µg/mL
[10]; Klebsiella pneumoniae CKP4
  MIC: 2 µg/mL
[11]; Enterbacter cloacae
  minimum inhibitory concentration: 4 µg/mL
[11]; Enterobacter cloacae Clinical Isolate
  MIC: 4 µg/mL
[12]; P. aeruginosa, 0 to 8% active agent (ZnPt ˜0.015 to 0.25%; combination 0.015% to 4%)
  dose response of antimicrobial activity in PEG ointment: dose-dependent increase in antimicrobial activity
[12]; Pseudomonas aeruginosa
  antimicrobial activity in PEG-formulation: exhibited antimicrobial activity
[13]; comparison of agents alone and in combination
  antibiofilm activity toward A. baumannii biofilms: improved activity
[13]; highest concentration tested (128 μg ml^−1; combination 64 μg ml^−1 of each agent)
  reduction in biofilm associated A. baumannii: 3.5 log
[14]; Enterococcus faecium
  minimum inhibitory concentration: 2 µg/mL
[14]; Enterococcus faecium 824-05
  MIC: 2 µg/mL
[15]; 50 μM (15.8 μg ml^−1), 48 hour biofilm
  reduction in biofilm associated Pseudomonas aeruginosa: 1 log
[15]; low concentrations (4 to 64 μg ml^−1)
  antibiofilm activity toward P. aeruginosa: comparable to that of silver sulfadiazine
